Assay results published in patent US4971993A, “Dipeptide derivatives and antihypertensive drugs containing them” (Ajinomoto Co., Inc., priority 1985, dated 1990).
Peptide text beside a SMILES is read from it. * marks the point of attachment. Mts = Cc1cc(C)c(S(=O)(=O)*)c(C)c1; Tos = Cc1ccc(S(=O)(=O)*)cc1

System: spontaneously hypertensive rats
Assay: Antihypertensive activity: systolic blood pressure measured indirectly on conscious SHR after a single oral dose
Type: in vivo
Details: male; for Hours after Administration (time of lowest systolic blood pressure) / Systolic Blood Pressure, Lowest value after Administration: 0.05 mmole/kg aqueous solution, once force-fed into the stomach; for ΔBlood Pressure (systolic): 0.05 mmole/kg once orally, lowest value minus value before administration
Description: The antihypertensive activity of the peptide derivatives as prepared above was determined.
As subject animals there were used 5 SHR which had been trained enough and been confirmed to be hypertensive spontaneously hypertensive rats (male, body weight of 400-440 g),per sample
As an instrument for measuring the blood pressure there was used Programmed Electro-Sphygmomanometer PE-300 (Narco Co., U.S.A.), and the blood pressure was indirectly measured on conscious rats.
An aqueous solution of a sample (0.05 mmole/kg) was once force-fed into the stomach by means of a peroal probe. As a control, deionized water was fed to the same animals as above.

Compound	Hours after Administration (time of lowest systolic blood pressure)	Systolic Blood Pressure, Lowest value after Administration	ΔBlood Pressure (systolic)
2-benzenesulfonylamino isobutyryl-L-proline sodium salt [Example 21]	7 h	193 mmHg	-17 mmHg
C[C@H](NS(=O)(=O)c1ccccc1)C(=O)N1CCC[C@H]1C(=O)O [Example 1, N-benzenesulfonyl-L-alanyl-L-proline]	8 h	185 mmHg	-28 mmHg
Cc1cc(C)c(S(=O)(=O)N[C@@H](C)C(=O)N2CCC[C@H]2C(=O)O)c(C)c1 [Example 2, N-mesitylenesulfonyl-L-alanyl-L-proline] (Mts-Ala-Pro-OH)	7 h	191 mmHg	-11 mmHg
Cc1ccc(S(=O)(=O)N[C@@H](C)C(=O)N2CCC[C@H]2C(=O)O)cc1 [Example 3, N-p-toluenesulfonyl-L-alanyl-L-proline] (Tos-Ala-Pro-OH)	7 h	194 mmHg	-12 mmHg
C[C@H](NS(=O)(=O)c1cccc2ccccc12)C(=O)N1CCC[C@H]1C(=O)O [Example 4, N-α-naphthalenesulfonyl-L-alanyl-L-proline]	7 h	185 mmHg	-13 mmHg
C[C@H](NS(=O)(=O)c1ccccc1[N+](=O)[O-])C(=O)N1CCC[C@H]1C(=O)O [Example 5, N-α-nitrobenzenesulfonyl-L-alanyl-L-proline]	7 h	193 mmHg	-18 mmHg
C[C@H](NS(=O)(=O)c1ccccc1N)C(=O)N1CCC[C@H]1C(=O)O [Example 6, N-o-aminobenzenesulfonyl-L-alanyl-L-proline]	7 h	197 mmHg	-35 mmHg
C[C@H](NS(=O)(=O)Cc1ccccc1)C(=O)N1CCC[C@H]1C(=O)O [Example 7, N-benzylsulfonyl-L-alanyl-L-proline]	7 h	194 mmHg	-21 mmHg
C[C@H](NS(=O)(=O)c1ccccc1C(=O)O)C(=O)N1CCC[C@H]1C(=O)O [Example 8, N-o-carboxybenzenesulfonyl-L-alanyl-L-proline]	7 h	194 mmHg	-9 mmHg
O=C(O)[C@@H]1CCCN1C(=O)CNS(=O)(=O)c1ccccc1 [Example 10, N-benzenesulfonylglycyl-L-proline]	7 h	201 mmHg	-9 mmHg
CC(C)[C@H](NS(=O)(=O)c1ccccc1)C(=O)N1CCC[C@H]1C(=O)O [Example 11, N-benzenesulfonyl-L-valyl-L-proline]	7 h	203 mmHg	-11 mmHg
CC[C@H](C)[C@H](NS(=O)(=O)c1ccccc1)C(=O)N1CCC[C@H]1C(=O)O [Example 12, N-benzenesulfonyl-L-isoleucyl-L-proline]	7 h	191 mmHg	-21 mmHg
O=C(O)[C@@H]1CCCN1C(=O)[C@@H](NS(=O)(=O)c1ccccc1)c1ccccc1 [Example 13, N-benzenesulfonyl-L-phenylglycyl-L-proline]	7 h	204 mmHg	-8 mmHg
O=C(O)[C@@H]1CCCN1C(=O)[C@H](Cc1ccccc1)NS(=O)(=O)c1ccccc1 [Example 14, N-benzenesulfonyl-L-phenylalanyl-L-proline]	7 h	201 mmHg	-18 mmHg
CSCC[C@H](NS(=O)(=O)c1ccccc1)C(=O)N1CCC[C@H]1C(=O)O [Example 15, N-benzenesulfonyl-L-methionyl-L-proline]	4 h	206 mmHg	-13 mmHg
O=C(O)[C@@H]1CCCN1C(=O)[C@@H]1CCCN1S(=O)(=O)c1ccccc1 [Example 16, N-benzenesulfonyl-L-prolyl-L-proline]	7 h	195 mmHg	-21 mmHg
O=C(O)[C@@H]1CCCN1C(=O)[C@H](CO)NS(=O)(=O)c1ccccc1 [Example 17, N-benzenesulfonyl-L-seryl-L-proline]	7 h	194 mmHg	-22 mmHg
O=C(O)CC[C@H](NS(=O)(=O)c1ccccc1)C(=O)N1CCC[C@H]1C(=O)O [Example 18, N-benzenesulfonyl-L-glutamyl-L-proline]	7 h	189 mmHg	-14 mmHg
NCCCC[C@H](NS(=O)(=O)c1ccccc1)C(=O)N1CCC[C@H]1C(=O)O [Example 19, N^α -benzenesulfonyl-L-lysyl-L-proline]	7 h	191 mmHg	-28 mmHg
N-ethanesulfonyl-L-alanyl-L-proline potassium salt [Example 9]	7 h	213 mmHg	-5 mmHg
